Test results from patent publication US11071735B2, “Treatment of inflammatory conditions and autoimmune diseases with glucose uptake inhibitors” (Kadmon Corporation, LLC, priority 2017, dated 2021).

Legend:
[1] = test system: TNFalpha and MCP-1 levels; assay: LPS/D-galactosamine mouse model, cytokine production; format: in vivo; details: 100 mg/kg p.o.
Experimental: 100 μg LPS and 18 mg D-galactosamine were used to induce cytokine production. […] In FIG. 6, Example 2 is shown to modulate cytokine/chemokine production in response to LPS/D-galactosamine (mouse model of sepsis and liver damage). Example 2 prevents the dramatic increase of TNFalpha (FIG. 6A), a cytokine well-established as a major driver of inflammation. In line with in vitro results, Example 2 abrogates an initial increase in MCP-1 (FIG. 6B), but is unable to statistically suppress MCP1 induction at later time points (not shown). LPS Mouse Model: Performed at Pharmalegacy.

[2] = test system: MCP-1 secretion; assay: MCP-1 secretion of LPS-treated THP1 monocytes (ELISA); format: cell-based; details: THP1 cells, compound one hour prior to 16 hour 1 μg/ml LPS
Experimental: (§1) In FIG. 5A, THP1 cells were activated with 1 μg/ml LPS for 16 hrs prior to a one-hour glycolysis assay (Example 2+Oligomycin). In FIG. 5B, THP1 cells were treated with Example 2 one hour prior to a 16 hour treatment with 1 μg/ml LPS, after which MCP-1 secretion into the media was measured by ELISA (R&D systems) and cell number measured by Cell Titer Glo (Promega).
(§2) THP1 Monocyte assay: THP1 monocytic cancer cells were activated with 1 ug/ml LPS (Sigma-Aldrich). The previously described glycolysis assay was performed 16 hrs post-activation. For cytokine secretion, cells were pre-treated for one hour with GLUT inhibitors prior to 16 hours of 1 μg/ml LPS treatment.

[3] = test system: phosphorylation of STAT1 and STAT3; assay: Western blot of STAT1/STAT3 phosphorylation in activated CD4 T cells; format: cell-based, human; details: 1 μM; CD4 T cells activated 48 hrs with IL-1β, TGF-β
Experimental: FIG. 8. […] FIG. 8A. CD4 T cells were activated for 48 hrs in the presence of IL-1β, TGF-β and 1 μM of the Example 2 compound. Western blotting analysis was used to determine the activation status of Stat3, Stat1 and pS6K (as a marker of mTORC1 activity) and the expression of GLUT1 protein. FIG. 8B. CD4 T cells were activated for 48 hrs and treated with the indicated compounds for 1.5 or 4 hrs. Western blotting analysis was used to determine the activation status of Stat3, Stat1 and pS6K (as a marker of mTORC1 activity). GLUT1/3 inhibitors downregulate phosphorylation of STAT1 and STAT3, key signaling molecules in activated T cells. In FIG. 8A. CD4 T cells were activated for 48 hrs in the presence of IL-1β, TGF-β and 1 μM of the Example 2 compound. Western blotting analysis was used to determine the activation status of Stat3, Stat1 and pS6K (as a marker of mTORC1 activity) and the expression of GLUT1 protein. CD4 T cells were activated for 48 hrs and treated with the indicated compounds in FIG. 8B for 1.5 or 4 hrs. […] IL-17 levels were measured by ELISA (R&D systems, Human IL-17 Quantikine ELISA kit). Proliferation was measured by Cell Titer Glo (Promega). Intracellular staining was performed and analyzed using the Guava EasyCyte flow cytometer. […] Protein levels and phosphorylation status were assessed by western blot analysis using antibodies purchased from Cell Signaling.

[4] = test system: MOG-induced experimental autoimmune encephalitis; assay: mouse MOG-induced experimental autoimmune encephalitis (EAE) model; format: in vivo; details: compared to vehicle control
Description: In FIG. 4, Example 2 is shown to have efficacy against an in vivo mouse model of inflammation, MOG-induced experimental autoimmune encephalitis. Example 2 both delays the onset and lowers the end clinical score of inflammation in this model.
Mouse Prophylactic MOG-EAE Model: Performed at Hooke laboratories.

[5] = test system: THP1 monocytes; assay: glycolysis assay in LPS-activated THP1 monocytes; format: cell-based; details: 1 μg/ml LPS 16 hrs, then one-hour glycolysis assay with oligomycin
Experimental: as §1, §2

[6] = molecular target: T1, GLUT3 (Homo sapiens, UniProt P11169); assay: glycolysis assay in DLD1 GLUT1−/− cells (rely on GLUT3); format: cell-based; details: DLD1-KO (GLUT1−/−) cells; 10 μM oligomycin, one hour
T1 construct: endogenous in cells; host or cells: DLD1 GLUT1−/− (knock-out) cancer cells
T1 sequence (P11169 1-496): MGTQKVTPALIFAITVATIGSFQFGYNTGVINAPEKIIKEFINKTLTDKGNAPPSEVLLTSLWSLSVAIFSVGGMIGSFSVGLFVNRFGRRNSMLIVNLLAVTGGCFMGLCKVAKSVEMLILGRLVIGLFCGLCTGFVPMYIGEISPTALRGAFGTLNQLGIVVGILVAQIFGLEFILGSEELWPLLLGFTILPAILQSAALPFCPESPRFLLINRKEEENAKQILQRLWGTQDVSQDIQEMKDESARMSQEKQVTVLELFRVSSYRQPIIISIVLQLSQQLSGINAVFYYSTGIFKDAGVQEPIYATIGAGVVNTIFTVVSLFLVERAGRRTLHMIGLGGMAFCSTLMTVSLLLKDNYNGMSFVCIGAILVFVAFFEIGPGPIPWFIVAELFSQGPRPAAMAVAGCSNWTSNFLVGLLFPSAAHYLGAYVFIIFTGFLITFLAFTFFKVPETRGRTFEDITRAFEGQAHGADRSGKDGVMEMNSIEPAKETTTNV
Summary of the method: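 Cells […] exposed for 1 h to inhibitor plus 10 μM oligomycin to block mitochondrial ATP; remaining glycolytic ATP read by CellTiter-Glo luminescence. IC50 derived from dose-response curves.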

## CCOc1ccc2nc(-c3cccc(OCC(=O)NC(C)C)c3)nc(Nc3ccc(-c4cn[nH]c4)cc3)c2c1 [Ex. 2, 2-(3-(4-((4-(1H-pyrazol-4-yl)phenyl)amino)-6-ethoxyquinazolin-2-yl)phenoxy)-N-isopropylacetamide]
[1]; 2 hours post LPS/Galn
  increase of MCP-1 levels: unable to prevent a statistically significant increase
[1]; one hour following LPS/Galn
  increase of MCP-1: inhibits the increase
  increase of TNFalpha: inhibits the increase
[2]
  MCP-1 secretion: inhibits cytokine/chemokine secretion
[3]
  phosphorylation of STAT1 and STAT3: downregulate the phosphorylation of STAT1 and STAT3
[4]; 30 mg/kg p.o. daily
  end clinical score: lowered the end clinical score
  onset of EAE: delayed onset
[4]; 100 mg/kg p.o. daily
  end clinical score: lowered the end clinical score
  onset of EAE: delayed onset
[5]
  glycolysis in LPS stimulated THP1 monocytes: inhibit glycolysis
[6]
  IC50: 60.9 nM
